Measured values from ChEMBL document CHEMBL5346940, “Design, synthesis and biological evaluation of dual Topo II/HDAC inhibitors bearing pyrimido[5,4-b]indole and pyrazolo[3,4-d]pyrimidine motifs” (Eur J Med Chem, 2023).
Activity calls are given as the source filed them. No cut-off for these calls is given here.

How the values were obtained:
MCF7 [1] = test: Induction of apoptosis in human MCF7 cells assessed as viable cells at 20 uM incubated for 48 hrs by AnnexinV-FITC/propidium iodide staining based flow cytometry analysis (reference value: 99.2 %); assay type: functional; conditions: read-out: Activity
MCF7 [2] = test: Induction of apoptosis in human MCF7 cells assessed as necrotic cells at 10 uM incubated for 48 hrs by AnnexinV-FITC/propidium iodide staining based flow cytometry analysis (reference value: 0.55 %); assay type: functional
MCF7 [3] = test: Induction of apoptosis in human MCF7 cells assessed as early apoptotic cells at 10 uM incubated for 48 hrs by AnnexinV-FITC/propidium iodide staining based flow cytometry analysis (reference value: 0.28 %); assay type: functional
Histone deacetylase = test: Inhibition of HDAC in human HeLa nuclear extract measured after 30 mins by fluorescence based assay; assay type: cell-free
MGC-803 = test: Antiproliferative activity against human MGC-803 cells assessed as reduction in cell viability measured for 48 hrs by MTT assay; assay type: functional, cell-based; conditions: MGC-803, 48 h
MCF7 [4] = test: Induction of apoptosis in human MCF7 cells assessed as necrotic cells at 20 uM incubated for 48 hrs by AnnexinV-FITC/propidium iodide staining based flow cytometry analysis (reference value: 0.55 %); assay type: functional
MCF7 [5] = test: Induction of apoptosis in human MCF7 cells assessed as late apoptotic cells at 10 uM incubated for 48 hrs by AnnexinV-FITC/propidium iodide staining based flow cytometry analysis (reference value: 0.015 %); assay type: functional
MCF7 [6] = test: Induction of apoptosis in human MCF7 cells assessed as late apoptotic cells at 5 uM incubated for 48 hrs by AnnexinV-FITC/propidium iodide staining based flow cytometry analysis (reference value: 0.015 %); assay type: functional
MCF7 [7] = test: Induction of apoptosis in human MCF7 cells assessed as early apoptotic cells at 5 uM incubated for 48 hrs by AnnexinV-FITC/propidium iodide staining based flow cytometry analysis (reference value: 0.28 %); assay type: functional
MCF7 [8] = test: Induction of apoptosis in human MCF7 cells assessed as cell depletion at 10 uM incubated for 48 hrs by AO/EB staining based fluorescence microscopic analysis; assay type: functional
MCF7 [9] = test: cells; assay type: functional; conditions: Homo sapiens, time 48 hrs
Description: Inhibition of cell migration in human MCF7 cells assessed as reduction in cell migration at 2.5 uM measured for 48 hrs by wound healing assay based microscopic analysis (Rvb = 70.25%)

MCF7 [10] = test: Induction of apoptosis in human MCF7 cells assessed as appearance of rounded cells at 10 uM incubated for 48 hrs by AO/EB staining based fluorescence microscopic analysis; assay type: functional, cell-based
MCF7 [11] = test: cells; assay type: functional; conditions: Homo sapiens, time 48 hrs; remark: listed apart in the source
Description: Inhibition of cell migration in human MCF7 cells assessed as reduction in cell migration at 1 uM measured for 48 hrs by wound healing assay based microscopic analysis (Rvb = 70.25%)

[12] = target: DNA topoisomerase 2-alpha (Homo sapiens) (UniProt P11388); test: Inhibition of human topoisomerase 2 assessed as relaxation of pBR322 plasmid DNA at 100 uM measured after 30 mins by ethidium bromide staining based UV transilluminator analysis
MCF7 [13] = test: Induction of apoptosis in human MCF7 cells assessed as viable cells at 5 uM incubated for 48 hrs by AnnexinV-FITC/propidium iodide staining based flow cytometry analysis (reference value: 99.2 %); assay type: functional; conditions: read-out: Activity
MCF7 [14] = test: Induction of apoptosis in human MCF7 cells assessed as early apoptotic cells at 20 uM incubated for 48 hrs by AnnexinV-FITC/propidium iodide staining based flow cytometry analysis (reference value: 0.28 %); assay type: functional
MCF7 [15] = test: Induction of apoptosis in human MCF7 cells assessed as viable cells at 10 uM incubated for 48 hrs by AnnexinV-FITC/propidium iodide staining based flow cytometry analysis (reference value: 99.2 %); assay type: functional; conditions: read-out: Activity
MCF7 [16] = test: Induction of apoptosis in human MCF7 cells assessed as late apoptotic cells at 20 uM incubated for 48 hrs by AnnexinV-FITC/propidium iodide staining based flow cytometry analysis (reference value: 0.015 %); assay type: functional
MCF7 [17] = test: Inhibition of cell migration in human MCF7 cells assessed as reduction in cell migration at 5 uM measured for 48 hrs by wound healing assay based microscopic analysis (reference value: 70.25%); assay type: functional
[18] = target: T1, DNA topoisomerase 1 (Homo sapiens) (UniProt P11387); test: Inhibition of human topoisomerase 1 assessed as relaxation of pBR322 plasmid DNA at 100 uM measured after 30 mins by agarose gel electrophoresis analysis
T1 sequence (whole entry): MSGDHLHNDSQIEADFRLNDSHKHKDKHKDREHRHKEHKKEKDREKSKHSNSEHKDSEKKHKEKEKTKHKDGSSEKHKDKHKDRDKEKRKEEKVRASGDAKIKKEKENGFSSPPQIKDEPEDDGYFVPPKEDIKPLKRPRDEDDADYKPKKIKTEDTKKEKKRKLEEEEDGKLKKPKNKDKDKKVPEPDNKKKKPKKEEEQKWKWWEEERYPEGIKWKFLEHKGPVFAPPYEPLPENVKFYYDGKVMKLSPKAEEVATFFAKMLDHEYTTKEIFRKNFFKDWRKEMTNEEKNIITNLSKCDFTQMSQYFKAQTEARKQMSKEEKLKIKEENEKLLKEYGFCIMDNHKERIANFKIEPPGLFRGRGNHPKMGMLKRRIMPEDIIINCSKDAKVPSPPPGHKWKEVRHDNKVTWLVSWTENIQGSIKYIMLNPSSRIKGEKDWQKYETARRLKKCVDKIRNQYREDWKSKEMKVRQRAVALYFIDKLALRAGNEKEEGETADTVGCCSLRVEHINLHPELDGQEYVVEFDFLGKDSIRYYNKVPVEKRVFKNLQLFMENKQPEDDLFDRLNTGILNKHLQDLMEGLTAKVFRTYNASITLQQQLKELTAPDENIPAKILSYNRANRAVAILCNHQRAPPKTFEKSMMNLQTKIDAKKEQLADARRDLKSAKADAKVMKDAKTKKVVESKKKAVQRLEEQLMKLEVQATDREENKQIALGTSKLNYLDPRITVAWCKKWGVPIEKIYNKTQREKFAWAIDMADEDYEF

MCF7 [19] = test: Induction of apoptosis in human MCF7 cells assessed as cell shrinkage at 10 uM incubated for 48 hrs by AO/EB staining based fluorescence microscopic analysis; assay type: functional
U-937 = test: Antiproliferative activity against human U-937 cells assessed as reduction in cell viability measured for 48 hrs by MTT assay; assay type: functional, cell-based; conditions: U-937, 48 h
MCF7 [20] = test: Induction of apoptosis in human MCF7 cells assessed as necrotic cells at 5 uM incubated for 48 hrs by AnnexinV-FITC/propidium iodide staining based flow cytometry analysis (reference value: 0.55 %); assay type: functional
NIH3T3 = test: Antiproliferative activity against mouse 3T3 cells assessed as reduction in cell viability at 100 uM measured for 48 hrs by MTT assay relative to control; assay type: toxicity, cell-based; conditions: nih3t3, 48 h
MCF7 [21] = test: Antiproliferative activity against human MCF7 cells assessed as reduction in cell viability measured for 48 hrs by MTT assay; assay type: functional, cell-based; conditions: MCF7, 48 h
[22] = target: DNA topoisomerase 2-alpha (Homo sapiens) (UniProt P11388); test: Poison activity at human topoisomerase 2 assessed as stabilization of enzyme-DNA cleavage complex by measuring linear DNA formation at 100 uM incubated for 6 mins by EtBr staining based UV light analysis

Sequence of DNA topoisomerase 2-alpha (Homo sapiens) (P11388 whole entry): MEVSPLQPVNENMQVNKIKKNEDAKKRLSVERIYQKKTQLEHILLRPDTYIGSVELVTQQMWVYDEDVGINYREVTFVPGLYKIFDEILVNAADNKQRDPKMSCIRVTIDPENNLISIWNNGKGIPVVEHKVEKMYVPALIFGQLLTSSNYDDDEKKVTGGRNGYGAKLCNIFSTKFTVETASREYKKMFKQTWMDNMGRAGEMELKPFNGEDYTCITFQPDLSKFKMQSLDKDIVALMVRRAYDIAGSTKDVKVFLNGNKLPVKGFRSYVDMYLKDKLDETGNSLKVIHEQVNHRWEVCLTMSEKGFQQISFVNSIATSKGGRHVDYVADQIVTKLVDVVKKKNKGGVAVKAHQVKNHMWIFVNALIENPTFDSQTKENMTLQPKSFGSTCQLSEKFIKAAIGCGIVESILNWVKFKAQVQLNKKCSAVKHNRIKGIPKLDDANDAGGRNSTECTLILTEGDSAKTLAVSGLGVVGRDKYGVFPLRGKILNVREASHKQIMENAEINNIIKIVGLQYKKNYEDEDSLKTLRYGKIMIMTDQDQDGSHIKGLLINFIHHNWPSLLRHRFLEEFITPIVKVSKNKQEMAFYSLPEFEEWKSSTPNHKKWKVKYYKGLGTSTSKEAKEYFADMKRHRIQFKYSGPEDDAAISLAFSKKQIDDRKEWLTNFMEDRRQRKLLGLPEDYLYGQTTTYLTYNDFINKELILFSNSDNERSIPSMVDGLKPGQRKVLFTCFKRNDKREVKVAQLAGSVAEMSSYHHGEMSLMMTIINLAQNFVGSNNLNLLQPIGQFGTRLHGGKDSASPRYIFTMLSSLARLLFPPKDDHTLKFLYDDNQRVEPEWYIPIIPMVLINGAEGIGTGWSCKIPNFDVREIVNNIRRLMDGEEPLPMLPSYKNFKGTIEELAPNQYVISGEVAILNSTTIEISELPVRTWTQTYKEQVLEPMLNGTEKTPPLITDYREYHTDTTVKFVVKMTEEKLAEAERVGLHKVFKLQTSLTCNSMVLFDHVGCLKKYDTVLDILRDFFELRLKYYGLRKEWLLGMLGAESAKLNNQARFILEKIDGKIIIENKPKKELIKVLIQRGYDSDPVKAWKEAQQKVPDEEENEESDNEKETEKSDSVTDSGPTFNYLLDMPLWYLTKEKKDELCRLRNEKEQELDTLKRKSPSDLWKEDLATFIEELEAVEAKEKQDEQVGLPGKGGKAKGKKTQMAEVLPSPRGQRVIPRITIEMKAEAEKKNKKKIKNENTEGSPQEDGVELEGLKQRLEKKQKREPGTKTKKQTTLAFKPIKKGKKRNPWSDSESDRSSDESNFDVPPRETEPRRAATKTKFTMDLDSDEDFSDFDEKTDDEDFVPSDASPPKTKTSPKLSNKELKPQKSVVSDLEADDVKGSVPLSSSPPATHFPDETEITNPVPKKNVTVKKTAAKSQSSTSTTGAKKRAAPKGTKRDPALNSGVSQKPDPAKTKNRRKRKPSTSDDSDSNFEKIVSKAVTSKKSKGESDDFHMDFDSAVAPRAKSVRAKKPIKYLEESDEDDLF

SMILES	viability at 20 µM (MCF7 [1]) [%]	Activity (MCF7 [2]) [%]	Activity (MCF7 [3]) [%]	IC50 (Histone deacetylase) [µM]	IC50 (MGC-803) [µM]	Activity (MCF7 [4]) [%]	Activity (MCF7 [5]) [%]	Activity (MCF7 [6]) [%]	Activity (MCF7 [7]) [%]	Activity (MCF7 [8])	inhibition at 2.5 µM (MCF7 [9]) [%]	Activity (MCF7 [10])	inhibition at 1 µM (MCF7 [11]) [%]	topoisomerase II inhibition (active/inactive) [12]	viability at 5 µM (MCF7 [13]) [%]	Activity (MCF7 [14]) [%]	viability at 10 µM (MCF7 [15]) [%]	Activity (MCF7 [16]) [%]	inhibition at 5 µM (MCF7 [17]) [%]	inhibition (active/inactive call) [18]	other results
CCn1c(SCCCCC(=O)NO)nc2c([nH]c3ccccc32)c1=O	53.7	0.3	14.1	5.9	12.3	0.48	6.9	1.16	4.86	Active	56.4	Active	65.4	Active	93.4	28.8	78.7	17.1	29.7	Active	Activity (MCF7 [19]): Active; IC50 (U-937): 24.6 µM; Activity (MCF7 [20]): 0.6%; Activity (NIH3T3): 38.7%; IC50 (MCF7 [21]): 18.3 µM
O=C(CCCCSc1nc2c([nH]c3ccccc32)c(=O)[nH]1)NO	45.5	0.67	26.6	4.67	9.59	0.54	12.1	5.88	10.4	Active	32.3	Active	58.5	Active	83.4	29	60.6	24.9	19.3	Active	Activity [22]: Active; Activity (MCF7 [19]): Active; IC50 (U-937): 28.5 µM; Activity (MCF7 [20]): 0.3%; Activity (NIH3T3): 7.62%
